# In patent US20100273831A1, “FLUORO ALKYL SUBSTITUTED BENZIMIDAZOLE CANNABINOID AGONISTS” (priority 2007, published 2010):
# How the values were obtained:
# [1] = target: T1, human CB2 (hCB2) receptor (Homo sapiens, UniProt P34972); assay: Inhibition of forskolin-activated cAMP production upon activation of human CB2 receptor (HTRF assay, CHO-K1 cells); assay type: cell-based; details: agonism; CHO-K1 cells stably transfected with hCB2; pEC50=-log(EC50); relative to WIN55212-2; read-out: CB-2 pEC50 (converted)
# T1 construct: expressed in transfected cells; host or cells: CHO-K1
# Protocol: (§1) Functional activity of the test compounds was assessed by measuring their potency to inhibit forskolin-activated cAMP production upon activation of the human CB1 (hCB1) or human CB2 (hCB2) receptor through homogenous time resolved fluorescence (HTRF) assays.
# (§2) CHO-K1 cells stably transfected with either hCB1 or hCB2 were grown up to 80-90% confluence in T175 Falcon flasks in DMEM/NUT MIX F-12 culture medium complemented with 2% Solution A (5.10^6 IU/1 penicillin G, 5 g/l streptomycin sulphate, 5.5 g/l pyruvate, 14.6 g/l L-glutamine, 1M NaOH) and 10% foetal calf serum. Before the experiments, medium was removed, cells were washed with PBS/EDTA (140 mM NaCl, 1 mM Na2-EDTA, 8 mM Na2HPO4.2H2O, 8.5 mM KH2PO4, 2.7 mM KCl, 21 mM glucose), resuspended in stimulation buffer (HBSS 1×, IBMX 1 mM, Hepes 5 mM, MgCl2 10 mM, BSA 0.1%, pH 7.4). Cells were diluted to a concentration of 8.10^5 cell/ml for hCB1 experiments and 10^6 cells/ml for hCB2 experiments. Assays were performed using the cAMP Dynamic HTRF kit (CIS bio international, France) according to the recommendations of the manufacturer.
# For CB2, each well of a 384 flat bottom black polystyrene assay plate (Costar) was filled with 10 μl stimulation buffer containing 15 μM forskolin and either test compound (in 3% DMSO), 3% DMSO or 10 μM Win55212-2 (in 3% DMSO). Then, 20 μl of the diluted hCB2-CHO-K1 cells was added (20,000 cells/well). After 30 minutes incubation in dark at room temperature, 10 μl cAMP-XL665 and 10 μl anti-cAMP cryptate (both at a final dilution of 1/100) was added to the cells.
# (§3) After equilibration of the reaction mixtures for 1 to 24 hours in dark at room temperature, fluorescence was measured at 665 nm and 620 nm using a Discovery microplate fluorescence counter (Perkin Elmer), and the signal ratio of 665 nm/620 nm was calculated. The signal ratios of the test compounds were expressed relative to the signal ratios of the DMSO control (maximal signal ratio, no inhibition of cAMP) and CP55490 or WIN55212-2 for hCB1 and hCB2, respectively (minimal signal ratio, maximal inhibition of cAMP). From the dose response curves generated for each test compound, the dose at which 50% of the maximal inhibition of cAMP level is observed (EC50, expressed in the Tables as pEC50=−log(EC50) values) and the level of inhibition reached with 10 μM of the test compound compared to CP55490 (for hCB1) or WIN55212-2 (for hCB2) was calculated.
# [2] = target: T2, human CB1 (hCB1) receptor (Homo sapiens, UniProt P21554); assay: Inhibition of forskolin-activated cAMP production upon activation of human CB1 receptor (HTRF assay, CHO-K1 cells); assay type: cell-based; details: agonism; CHO-K1 cells stably transfected with hCB1; pEC50=-log(EC50); relative to CP55490; read-out: CB-1 pEC50 (converted)
# T2 construct: expressed in transfected cells; host or cells: CHO-K1
# Protocol: as §1, §2
# For CB1, each well of a 96 flat bottom black polystyrene assay plate (Costar) was filled with 25 μl stimulation buffer containing 6 μM forskolin and either test compound (in 2% DMSO), 2% DMSO or 2 μM CP55490 (in 2% DMSO). Then, 25 μl of the diluted cells was added (20,000 cells/well). After 30 minutes incubation in dark at room temperature, 25 μl cAMP-XL665 and 25 μl anti-cAMP cryptate (both at a final dilution of 1/80) was added to the cells.
# as §3
# T1 sequence (P34972 whole entry): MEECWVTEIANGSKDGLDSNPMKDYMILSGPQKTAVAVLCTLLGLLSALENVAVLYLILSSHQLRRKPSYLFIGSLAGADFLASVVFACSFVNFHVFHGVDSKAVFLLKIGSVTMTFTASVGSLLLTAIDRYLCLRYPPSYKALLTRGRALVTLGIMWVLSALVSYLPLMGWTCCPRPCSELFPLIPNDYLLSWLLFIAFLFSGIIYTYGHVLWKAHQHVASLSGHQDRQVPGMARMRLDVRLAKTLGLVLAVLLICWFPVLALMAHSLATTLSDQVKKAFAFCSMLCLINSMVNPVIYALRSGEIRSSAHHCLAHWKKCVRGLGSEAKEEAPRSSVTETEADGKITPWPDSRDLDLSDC
# T2 sequence (P21554 whole entry): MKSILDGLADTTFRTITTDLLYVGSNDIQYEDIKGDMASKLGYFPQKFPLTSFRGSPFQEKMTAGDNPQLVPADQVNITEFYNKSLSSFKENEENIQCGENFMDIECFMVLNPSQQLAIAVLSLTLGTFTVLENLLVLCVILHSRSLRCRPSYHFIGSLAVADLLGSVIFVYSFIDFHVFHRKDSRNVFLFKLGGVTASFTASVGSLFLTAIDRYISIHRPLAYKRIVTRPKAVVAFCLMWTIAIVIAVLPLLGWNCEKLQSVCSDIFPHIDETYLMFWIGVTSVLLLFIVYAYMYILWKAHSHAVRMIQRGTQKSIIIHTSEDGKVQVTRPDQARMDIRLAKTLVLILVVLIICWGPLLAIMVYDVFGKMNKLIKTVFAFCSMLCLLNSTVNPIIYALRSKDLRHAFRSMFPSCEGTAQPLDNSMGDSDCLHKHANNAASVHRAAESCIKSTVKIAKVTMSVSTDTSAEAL
SMILES,EC50 [1],EC50 [2],melting point
COc1ccc(CSc2ccc3c(c2)nc(C(C)(C)C)n3CCCC(F)(F)F)cc1 [compound 1],5.01 nM,> 10000 nM,
CC(C)(C)c1nc2cc(S(=O)(=O)c3ccc(C(N)=O)cc3)ccc2n1CCCC(F)(F)F [compound 18],3.16 nM,2000 nM,
CC(C)(C)c1nc2cc(S(=O)(=O)C(F)(F)c3ccc(C#N)cc3)ccc2n1CCCCC(F)(F)F [compound 21],3.16 nM,79.4 nM,
CC(C)(C)c1nc2cc(S(=O)(=O)c3ccc(C#N)cc3)ccc2n1CCCC(F)(F)F,,,165.1 °C
CC(C)(C)c1nc2cc(S(=O)(=O)C(C)(C)c3ccc(C#N)cc3)ccc2n1CCCCC(F)(F)F,,,187.6 °C
CC(C)(C)c1nc2cc(Sc3ccc(C#N)cc3)ccc2n1CCCC(F)(F)F [compound 9],1 nM,25.1 nM,
CC(C)(C)c1nc2cc(S(=O)(=O)Cc3ccc(C(N)=O)cc3)ccc2n1CCCCC(F)(F)F [compound 22],2 nM,79.4 nM,222.8 °C
CC(C)(C)c1nc2cc(S(=O)(=O)Cc3ccc(C#N)cc3)ccc2n1CCCCC(F)(F)F,,,177.4 °C
CC(C)(C)c1nc2cc(S(=O)(=O)c3ccc(C(N)=O)cc3)ccc2n1CCCC(F)(F)F,,,207.8 °C
CC(C)(C)c1nc2cc(S(=O)(=O)c3ccc(C#N)cc3)ccc2n1CCCCC(F)(F)F [compound 12],1 nM,25.1 nM,180.1 °C
CC(C)(C)c1nc2cc(S(=O)(=O)c3ccncc3)ccc2n1CCCC(F)(F)F [compound 4],0.398 nM,2510 nM,
COc1ccc(CSc2ccc3c(c2)nc(C(C)(C)C)n3CCCC(F)(F)F)cc1,,,143.2 °C
CC(C)(C)c1nc2cc(S(=O)(=O)CC3CC3)ccc2n1CCCCC(F)(F)F [compound 11],1.58 nM,31.6 nM,
CC(C)(C)c1nc2cc(S(=O)(=O)c3ccncc3)ccc2n1CCCCC(F)(F)F [compound 13],1.58 nM,200 nM,147.6 °C
CC(C)(C)c1nc2cc(S(=O)(=O)c3cn[nH]c3)ccc2n1CCCC(F)(F)F [compound 5],0.794 nM,1260 nM,220.8 °C
CC(C)(C)c1nc2cc(S(=O)(=O)Cc3ccc(C#N)cc3)ccc2n1CCCCC(F)(F)F [compound 19],2 nM,> 10000 nM,
CC(C)(C)c1nc2cc([S+]([O-])c3ccc(C#N)cc3)ccc2n1CCCC(F)(F)F (stereo not drawn) [compound 7],2.51 nM,> 10000 nM,
CC(C)(C)c1nc2cc(Sc3cn[nH]c3)ccc2n1CCCC(F)(F)F [compound 8],0.631 nM,> 10000 nM,
CC(C)(C)c1nc2cc(S(=O)(=O)C3CCNC3=O)ccc2n1CCCCC(F)(F)F (stereo not drawn) [compound 23],5.01 nM,1580 nM,
CC(C)(C)c1nc2cc(S(=O)(=O)CC3CC3)ccc2n1CCCC(F)(F)F [compound 3],1.26 nM,316 nM,
CC(C)(C)c1nc2cc(S(=O)(=O)c3ccc(C#N)cc3)ccc2n1CCCC(F)(F)F [compound 6],0.398 nM,79.4 nM,
COc1ccc(CSc2ccc3c(c2)nc(C(C)(C)C)n3CCCCC(F)(F)F)cc1 [compound 10],6.31 nM,> 10000 nM,
CC(C)(C)c1nc2cc(SCC3CC3)ccc2n1CCCCC(F)(F)F [compound 14],2 nM,10 nM,
CC(C)(C)c1nc2cc(S(=O)(=O)C3CCNC3=O)ccc2n1CCCC(F)(F)F (stereo not drawn),,,208.7 °C
CC(C)(C)c1nc2cc(S(=O)(=O)C3CCNC3=O)ccc2n1CCCC(F)(F)F (stereo not drawn) [compound 16],2.51 nM,3980 nM,
CC(C)(C)c1nc2cc(S(=O)(=O)c3ccncc3)ccc2n1CCCC(F)(F)F,,,155.4 °C
CC(C)(C)c1nc2cc(S(=O)(=O)C(C)(C)c3ccc(C#N)cc3)ccc2n1CCCCC(F)(F)F [compound 20],1.58 nM,2000 nM,
